Measurements published in patent US20240082282A1 (priority 2020, published 2024).
In brackets after ≈: the same amount, converted by molar mass. Read-outs that look alike come from different tables or passages of the source.

Assays:
[1] = test system: Shigella sonnei ATCC 25931; assay type: cell-based
Escherichia coli MG1655 = assay type: cell-based
[2] = test system: Salmonella typhimurium LT2 ATCC 19585; assay type: cell-based
[3] = test system: Parabacteroides merdae KLE 2238; assay type: cell-based; conditions: Parabacteroides merdae KLE 2238, anaerobic, stool isolate; for MIC: KLE2238, read-out: Minimum inhibitory concentration (MIC)
[4] = test system: Bacteroides vulgatus KLE 2381; assay type: cell-based; conditions: Bacteroides vulgatus KLE 2381, anaerobic, stool isolate; for MIC: Phocaeicola vulgatus, KLE2381, read-out: Minimum inhibitory concentration (MIC)
[5] = test system: Enterococcus faecalis KLE 2341; assay type: cell-based
[6] = test system: Enterobacter cloacae ATCC 13047; assay type: cell-based; conditions: Enterobacter cloacae ATCC 13047, anaerobic; for MIC: ATCC13047, read-out: Minimum inhibitory concentration (MIC)
[7] = test system: Bacteroides xylanisolvens KLE 2305; assay type: cell-based; conditions: Bacteroides xylanisolvens KLE 2305, anaerobic, stool isolate; for MIC: KLE2305, read-out: Minimum inhibitory concentration (MIC)
[8] = test system: B. burgdorferi overexpressing bmpD (Bb1286+pJSB275m_bmpD); experiment: MIC of B. burgdorferi overexpressing bmpD; assay type: cell-based; conditions: for Change of MIC on overexpression of bmpD in B. burgdorferi: normalized to wild-type B. burgdorferi, IPTG-independent
[9] = test system: Leptospira biflexa ATCC 23582; conditions: for MIC: Leptospira biflexa
Borreliella miyamotoi = conditions: for MIC: Borreliella, read-out: Minimum inhibitory concentration (MIC)
[10] = test system: Borrelia turcica DSM 16138; conditions: for MIC: Borrelia turcica
B. burgdorferi N40 = experiment: Bait experiment in infected mice; assay type: in vivo, C3H mice; conditions: for B. burgdorferi culture (% positive) / Mean # of B. burgdorferi/10 mg of skin tissue (qPCR): bait once a day for 5 days; for Culture positive (%): C3H, bait, 5 days, whole ear culture
Method: Mice were infected with B. burgdorferi.
To prepare the mouse bait, 2 g of Bait formulation 3 (Food source), 0.5 g freshly ground peanut butter (Whole foods), 35 μl of green food coloring mix (Whole foods) were added into a 60 mm Petri dish. Boiling water (4 mL) was added and mixed with a spatula. The mixture was then dispensed into wells of a 96 well plate with a spatula such that about ⅔rd of the well was full. Antibiotics or vehicle were added at appropriate volume and mixed with a pipette tip. Added volume was kept below 60 μL per well. The bait was allowed to air dry/solidify for a few hours and the prepared baits were stored at 4° C. until use.
To ensure that the bait would be consumed, mice were housed individually with their mouse chow withheld during treatment. The doses used in mice were matched to the pharmacokinetic profile of humans given ceftriaxone 1 g every 12 hours (Sai Life Sciences Ltd, India) and doxycycline 100 mg every 12 hours.
Skin was used for liquid culture, and RNA extraction. All other tissues were used for RNA extraction. The growth of B. burgdorferi in 10 day liquid cultures was detected by dark field microscopy with a 100× objective.

B. burgdorferi B31 KLEX2 = experiment: MIC of hygromycin A resistant mutant; assay type: cell-based
B. burgdorferi = experiment: Efficacy of hygromycin A in Peromyscus mice; assay type: in vivo; conditions: Peromyscus leucopus, subcutaneous, twice a day, 5 days
From the text: Mice were sacrificed on Day 11 and the heart, ankle, and ear were taken for culture. Cultures were monitored by darkfield microscopy for 4 weeks or until positive.

[11] = test system: GFP-inducible B. burgdorferi strain pCRW53; experiment: Measurement of protein synthesis inhibition (GFP, FACS); assay type: cell-based
[12] = test system: Borrelia burgdorferi BbP1286
HepG2 = conditions: HepG2, alamar blue, 72 hours
FaDu = conditions: alamar blue, 72 hours
[13] = test system: FaDu, HepG2 and HEK293-RFP cells; conditions: a number of human cell lines
[14] = test system: Brachyspira (formerly Treponema) hyodysenteriae; conditions: report of a group from Japan; cited from earlier work
[15] = test system: Brachyspira (formerly Treponema) hyodysenteriae; conditions: report of a group from Japan; cited from earlier work; remark: listed apart in the source
E. coli WT BW25113 = experiment: MIC of E. coli mutant strains
[16] = test system: E. coli ΔtolC (no efflux); experiment: MIC of E. coli mutant strains
[17] = test system: Alkalispirochaeta americana DSM 14872
[18] = test system: E. coli ΔTolC+pBAD30 bmpD; experiment: MIC of E. coli overexpressing bmpD; conditions: arabinose induced
Treponema pallidum = experiment: MIC, T. pallidum in co-culture with rabbit Sf1Ep cells
[19] = ATCC25931, Shigella sonnei ATCC 25931, anaerobic, read-out: Minimum inhibitory concentration (MIC)
[20] = read-out: Minimum inhibitory concentration (MIC)
[21] = Salmonella enterica, Salmonella typhimurium LT2 ATCC 19585, anaerobic, read-out: Minimum inhibitory concentration (MIC)
[22] = KLE2341, Enterococcus faecalis KLE 2341, anaerobic, stool isolate, read-out: Minimum inhibitory concentration (MIC)
[23] = ATCC23582, read-out: Minimum inhibitory concentration (MIC)
[24] = Borreliella afzelii, read-out: Minimum inhibitory concentration (MIC)
[25] = Borreliella garinii, read-out: Minimum inhibitory concentration (MIC)
[26] = DSM16138, read-out: Minimum inhibitory concentration (MIC)

Compound: CO/N=C(\C(=O)N[C@@H]1C(=O)N2C(C(=O)O)=C(CSc3nc(=O)c(=O)[nH]n3C)CS[C@H]12)c1csc(N)n1 [Ceftriaxone]
- MIC [1, 19]: 0.25 µg/mL (≈ 0.451 µM)
- MIC (Escherichia coli MG1655; [20]): 0.06 µg/mL (≈ 0.108 µM)
- MIC [2, 21]: 0.25 µg/mL (≈ 0.451 µM)
- MIC [3]: 0.25 µg/mL (≈ 0.451 µM)
- MIC [4]: 128 µg/mL (≈ 231 µM)
- MIC [5, 22]: > 128 µg/mL
- MIC [6]: 64 µg/mL (≈ 115 µM)
- MIC [7]: 64 µg/mL (≈ 115 µM)
- Change of MIC on overexpression of bmpD in B. burgdorferi [8]: no effect
- Change of MIC on overexpression of bmpD in B. burgdorferi ([8]; listed as ceftriaxone): remained unchanged
- MIC [9, 23]: 2 µg/mL (≈ 3.61 µM)
- MIC (Borrelia afzelii; [24]): < 0.01 µg/mL
- MIC (Borrelia garinii; [25]): 0.01 µg/mL (≈ 0.018 µM)
- MIC (Borreliella miyamotoi): 0.01 µg/mL (≈ 0.018 µM)
- MIC [10, 26]: 0.06 µg/mL (≈ 0.108 µM)

Compound: C[C@H]1c2cccc(O)c2C(=O)C2=C(O)[C@]3(O)C(=O)C(C(N)=O)=C(O)[C@@H](N(C)C)[C@@H]3[C@@H](O)[C@@H]21 [Doxycycline]
- MIC [1, 19]: 4 µg/mL (≈ 9 µM)
- MIC (Escherichia coli MG1655; [20]): 2 µg/mL (≈ 4.5 µM)
- MIC [2, 21]: 8 µg/mL (≈ 18 µM)
- MIC [3]: 0.06 µg/mL (≈ 0.135 µM)
- MIC [4]: 1 µg/mL (≈ 2.25 µM)
- MIC [5, 22]: 0.5 µg/mL (≈ 1.13 µM)
- MIC [6]: 8 µg/mL (≈ 18 µM)
- MIC [7]: 0.5 µg/mL (≈ 1.13 µM)
- B. burgdorferi culture (% positive) (B. burgdorferi N40; 100 mg/kg): 0%
- Mean # of B. burgdorferi/10 mg of skin tissue (qPCR) (B. burgdorferi N40; 100 mg/kg): <1 B. burgdorferi/10 mg of skin t
- Culture positive (%) (B. burgdorferi N40; daily dose 200 mg/kg/day): 0%
- MIC [9, 23]: 2 µg/mL (≈ 4.5 µM)
- MIC (Borrelia afzelii; [24]): 0.12 µg/mL (≈ 0.27 µM)
- MIC (Borrelia garinii; [25]): 0.12 µg/mL (≈ 0.27 µM)
- MIC (Borreliella miyamotoi): 0.12 µg/mL (≈ 0.27 µM)
- MIC [10, 26]: 0.25 µg/mL (≈ 0.563 µM)

Compound: Hygromycin A
- MIC ([1]; Shigella sonnei): 64 µg
- Minimum inhibitory concentration (MIC) ([1]; Shigella sonnei ATCC 25931, anaerobic): 64 µg/mL
- MIC (Escherichia coli MG1655): 128 µg
- Minimum inhibitory concentration (MIC) (Escherichia coli MG1655): 128 µg/mL
- MIC ([2]; Salmonella typhimurium): >128 µg
- Minimum inhibitory concentration (MIC) ([2]; Salmonella typhimurium LT2 ATCC 19585, anaerobic): >128 µg/mL
- Minimum inhibitory concentration (MIC) [3]: 16 µg/mL
- Minimum inhibitory concentration (MIC) [4]: 64 µg/mL
- MIC ([5]; Enterococcus faecalis): >128 µg
- Minimum inhibitory concentration (MIC) ([5]; Enterococcus faecalis KLE 2341, anaerobic, stool isolate): >128 µg/mL
- Minimum inhibitory concentration (MIC) [6]: >128 µg/mL
- Minimum inhibitory concentration (MIC) [7]: >128 µg/mL
- MIC (B. burgdorferi B31 KLEX2; B. burgdorferi B31 KLEX2, stable hygromycin A resistance): 4 µg/mL
- MIC increase as compared to wild type parent strain (B. burgdorferi B31 KLEX2; B. burgdorferi B31 KLEX2 vs parent): 16 fold
- MIC (B. burgdorferi B31 KLEX2; Hygromycin A resistant B. burgdorferi (HygR) (FIG. 7B)): 4 µg/mL
- MIC ([8]; BmpD overexpressing B. burgdorferi (FIG. 7B)): 0.0625 µg/mL
- Change of MIC on overexpression of bmpD in B. burgdorferi [8]: four-fold reduction
- B. burgdorferi culture (% positive) (B. burgdorferi N40; 200 mg/kg): 0%
- Mean # of B. burgdorferi/10 mg of skin tissue (qPCR) (B. burgdorferi N40; 200 mg/kg): <1 B. burgdorferi/10 mg of skin t
- Culture positive (%) (B. burgdorferi N40; daily dose 100 mg/kg/day): 0%
- Clearance of B. burgdorferi infection by consuming baits (B. burgdorferi N40; baits, FIG. 10): efficiently cleared
- Culture positive (%) (B. burgdorferi; total daily dose 100 mg/kg/day): 100%
- Culture positive (%) (B. burgdorferi; total daily dose 200 mg/kg/day): 0%
- GFP level as compared to control (protein synthesis) [11]: dramatically lower level of GFP
- MIC ([12]; Borrelia burgdorferi BbP1286): 0.12 µg
- Minimum inhibitory concentration (MIC) ([12]; Borreliella burgdorferi P1286, microaerophilic): 0.12 µg/mL
- IC50 (HepG2): >512 µg/mL
- IC50 (FaDu): >512 µg/mL
- EC50 (cytotoxicity) [13]: > 512
- Activity against Brachyspira hyodysenteriae [14]: good activity
- Treatment of pig dysentery [15]: showed efficacy
- MIC [9]: 4 µg
- Minimum inhibitory concentration (MIC) ([9]; Leptospira biflexa ATCC 23582): 4 µg/mL
- MIC (Escherichia coli Nissle): >128 µg
- MIC (E. coli WT BW25113): 512 µg/mL
- MIC ([16]; E. coli ΔtolC, no efflux): 16 µg/mL
- Decrease in MIC on addition of adenosine to E. coli ([16]; adenosine 2.5-2500 μM, concentration-dependent): up to 8 fold
- MIC ([17]; Alkalispirochaeta americana): 0.5 µg
- Minimum inhibitory concentration (MIC) ([17]; Alkalispirochaeta americana DSM 14872, anaerobic): 0.5 µg/mL
- Reduction of E. coli MIC on inducing expression of BmpD [18]: 8 fold
- MIC (Borrelia afzelii; B. afzelii): 0.25 µg/mL
- MIC (Borrelia afzelii; Borrelia afzelii): 0.25 µg
- Minimum inhibitory concentration (MIC) (Borrelia afzelii; Borreliella afzelii, microaerophilic): 0.25 µg/mL
- MIC (Borrelia garinii; B. garinii): 0.25 µg/mL
- MIC (Borrelia garinii; Borrelia garinii): 0.25 µg
- Minimum inhibitory concentration (MIC) (Borrelia garinii; Borreliella garinii, microaerophilic): 0.25 µg/mL
- Minimum inhibitory concentration (MIC) (Borreliella miyamotoi; Borreliella miyamotoi, microaerophilic): 0.25 µg/mL
- MIC [10]: 0.5 µg
- Minimum inhibitory concentration (MIC) ([10]; Borrelia turcica DSM 16138, microaerophilic): 0.5 µg/mL
- MIC (Treponema pallidum): 0.03 µg
- Minimum inhibitory concentration (MIC) (Treponema pallidum): 0.03 µg/mL
- MIC (Treponema pallidum; monitoring spirochetes in co-culture with rabbit cells): 0.03 µg/mL

Compound: CC1(C)S[C@@H]2[C@H](NC(=O)[C@H](N)c3ccc(O)cc3)C(=O)N2[C@H]1C(=O)O [Amoxicillin]
- MIC [1, 19]: 2 µg/mL (≈ 5.47 µM)
- MIC (Escherichia coli MG1655; [20]): 16 µg/mL (≈ 43.8 µM)
- MIC [2, 21]: 16 µg/mL (≈ 43.8 µM)
- MIC [3]: 1 µg/mL (≈ 2.74 µM)
- MIC [4]: 128 µg/mL (≈ 350 µM)
- MIC [5, 22]: 0.5 µg/mL (≈ 1.37 µM)
- MIC [6]: > 128 µg/mL
- MIC [7]: 32 µg/mL (≈ 87.6 µM)
- MIC [9, 23]: 8 µg/mL (≈ 21.9 µM)
- MIC (Borrelia afzelii; [24]): 0.01 µg/mL (≈ 0.0274 µM)
- MIC (Borrelia garinii; [25]): 0.12 µg/mL (≈ 0.328 µM)
- MIC (Borreliella miyamotoi): 0.12 µg/mL (≈ 0.328 µM)
- MIC [10, 26]: 0.25 µg/mL (≈ 0.684 µM)
